# Reference: patent publication US20260200947A1, “FUSED CYCLIC COMPOUNDS AND USE THEREOF” (Jacobio Pharmaceuticals Co., Ltd., priority 2022, published 2026)
# Target: GppNp-KRAS G12V (Homo sapiens, UniProt P01116, G12V)
# Assay: biochemical
# Settings: not given
# GppNp-KRAS G12V, sequence (P01116 1-169 isoform P01116-2 G12V): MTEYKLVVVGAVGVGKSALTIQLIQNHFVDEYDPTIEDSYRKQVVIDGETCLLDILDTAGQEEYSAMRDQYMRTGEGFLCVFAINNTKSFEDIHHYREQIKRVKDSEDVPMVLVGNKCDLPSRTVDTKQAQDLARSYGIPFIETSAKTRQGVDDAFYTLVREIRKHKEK
row,Structure (SMILES),IC50 [nM]
1,C#Cc1c(F)ccc2cc(N)cc(-c3nc4c5c(nc(OC[C@@]67CCCN6C[C@H](F)C7)nc5c3F)N3[C@@H](C)CCOC[C@H]3N4C)c12 [Compound 36],30.4
2,[2H]C1([2H])OCCCN2c3nc(OC[C@@]45CCCN4C[C@H](F)C5)nc4c(F)c(-c5cc(N)cc6ccc(F)c(C#C)c56)nc(c34)N(C)C21 (stereo partly shown) [Compound 76],118
3,C#Cc1c(F)ccc2cc(N)cc(-c3nc4c5c(nc(OC[C@@]67CCCN6C[C@H](F)C7)nc5c3F)N3CCCC[C@H](F)[C@H]3N4C)c12 [Compound 40A],36.4
4,C#Cc1c(F)ccc2cc(N)cc(-c3nc4c5c(nc(OC[C@@]67CCCN6C[C@H](F)C7)nc5c3F)N3CCOCCC3N4C)c12 (stereo partly shown) [Compound 114],747
5,C#Cc1c(F)ccc2cc(N)cc(-c3nc4c5c(nc(OC[C@@]67CCCN6C[C@H](F)C7)nc5c3F)N3[C@@H](CC)CCOC[C@H]3N4C)c12 [Compound 94],204
6,"N#Cc1c(N)sc2c(F)ccc(-c3c(F)c4c5c(nc(OC[C@@]67CCCN6C[C@H](F)C7)nc5c3F)N3CCCOC[C@H]3CO4)c12 (single isomer, unassigned) [Compound 163B]",18.3

# Tested on: SW620 cells (K-Ras G12V)
# Assay: Phospho-ERK1/2(THR202/TYR204) HTRF assay, SW620
# Type: cell-based
# Settings: Homo sapiens, SW-620, 2 hours incubation, read-out: pERK, IC50, SW620
row,Structure (SMILES),IC50 [nM]
1,C#Cc1c(F)ccc2cc(N)cc(-c3nc4c5c(nc(OC[C@@]67CCCN6C[C@H](F)C7)nc5c3F)N3[C@@H](C)CCOC[C@H]3N4C)c12 [Compound 36],1.01
2,[2H]C1([2H])OCCCN2c3nc(OC[C@@]45CCCN4C[C@H](F)C5)nc4c(F)c(-c5cc(N)cc6ccc(F)c(C#C)c56)nc(c34)N(C)C21 (stereo partly shown) [Compound 76],2.08
3,C#Cc1c(F)ccc2cc(N)cc(-c3nc4c5c(nc(OC[C@@]67CCCN6C[C@H](F)C7)nc5c3F)N3CCCC[C@H](F)[C@H]3N4C)c12 [Compound 40A],0.328
4,C#Cc1c(F)ccc2cc(N)cc(-c3nc4c5c(nc(OC[C@@]67CCCN6C[C@H](F)C7)nc5c3F)N3CCOCCC3N4C)c12 (stereo partly shown) [Compound 114],28.3
5,C#Cc1c(F)ccc2cc(N)cc(-c3nc4c5c(nc(OC[C@@]67CCCN6C[C@H](F)C7)nc5c3F)N3[C@@H](CC)CCOC[C@H]3N4C)c12 [Compound 94],1.71

# Target: GDP-KRAS G12D (Homo sapiens, UniProt P01116, G12D)
# Assay: biochemical
# Settings: not given
# GDP-KRAS G12D, sequence (P01116 1-169 isoform P01116-2 G12D): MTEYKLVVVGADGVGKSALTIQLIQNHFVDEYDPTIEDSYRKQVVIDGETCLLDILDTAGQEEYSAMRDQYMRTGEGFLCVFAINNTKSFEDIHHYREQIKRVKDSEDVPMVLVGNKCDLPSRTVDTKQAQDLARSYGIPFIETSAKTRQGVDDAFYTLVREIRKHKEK
row,Structure (SMILES),IC50 [nM]
1,C#Cc1c(F)ccc2cc(N)cc(-c3nc4c5c(nc(OC[C@@]67CCCN6C[C@H](F)C7)nc5c3F)N3[C@@H](C)CCOC[C@H]3N4C)c12 [Compound 36],0.339
2,[2H]C1([2H])OCCCN2c3nc(OC[C@@]45CCCN4C[C@H](F)C5)nc4c(F)c(-c5cc(N)cc6ccc(F)c(C#C)c56)nc(c34)N(C)C21 (stereo partly shown) [Compound 76],2.84
3,C#Cc1c(F)ccc2cc(N)cc(-c3nc4c5c(nc(OC[C@@]67CCCN6C[C@H](F)C7)nc5c3F)N3CCCC[C@H](F)[C@H]3N4C)c12 [Compound 40A],0.875
4,C#Cc1c(F)ccc2cc(N)cc(-c3nc4c5c(nc(OC[C@@]67CCCN6C[C@H](F)C7)nc5c3F)N3CCOCCC3N4C)c12 (stereo partly shown) [Compound 114],3.73
5,C#Cc1c(F)ccc2cc(N)cc(-c3nc4c5c(nc(OC[C@@]67CCCN6C[C@H](F)C7)nc5c3F)N3[C@@H](CC)CCOC[C@H]3N4C)c12 [Compound 94],1.17
6,"N#Cc1c(N)sc2c(F)ccc(-c3c(F)c4c5c(nc(OC[C@@]67CCCN6C[C@H](F)C7)nc5c3F)N3CCCOC[C@H]3CO4)c12 (single isomer, unassigned) [Compound 163B]",0.879

# Tested on: AsPC-1 cells (K-Ras G12D)
# Assay: not given
# Settings: not given
row,Structure (SMILES),IC50 [nM]
1,C#Cc1c(F)ccc2cc(N)cc(-c3nc4c5c(nc(OC[C@@]67CCCN6C[C@H](F)C7)nc5c3F)N3[C@@H](C)CCOC[C@H]3N4C)c12 [Compound 36],16.9
2,[2H]C1([2H])OCCCN2c3nc(OC[C@@]45CCCN4C[C@H](F)C5)nc4c(F)c(-c5cc(N)cc6ccc(F)c(C#C)c56)nc(c34)N(C)C21 (stereo partly shown) [Compound 76],76
3,C#Cc1c(F)ccc2cc(N)cc(-c3nc4c5c(nc(OC[C@@]67CCCN6C[C@H](F)C7)nc5c3F)N3CCCC[C@H](F)[C@H]3N4C)c12 [Compound 40A],2.54
4,C#Cc1c(F)ccc2cc(N)cc(-c3nc4c5c(nc(OC[C@@]67CCCN6C[C@H](F)C7)nc5c3F)N3CCOCCC3N4C)c12 (stereo partly shown) [Compound 114],586
5,C#Cc1c(F)ccc2cc(N)cc(-c3nc4c5c(nc(OC[C@@]67CCCN6C[C@H](F)C7)nc5c3F)N3[C@@H](CC)CCOC[C@H]3N4C)c12 [Compound 94],82.5
6,"N#Cc1c(N)sc2c(F)ccc(-c3c(F)c4c5c(nc(OC[C@@]67CCCN6C[C@H](F)C7)nc5c3F)N3CCCOC[C@H]3CO4)c12 (single isomer, unassigned) [Compound 163B]",14

# Target: GDP-KRAS G12V (Homo sapiens, UniProt P01116, G12V)
# Assay: biochemical
# Settings: not given
# GDP-KRAS G12V, sequence (P01116 1-169 isoform P01116-2 G12V): as the sequence (P01116 1-169 isoform P01116-2 G12V) above
row,Structure (SMILES),IC50 [nM]
1,C#Cc1c(F)ccc2cc(N)cc(-c3nc4c5c(nc(OC[C@@]67CCCN6C[C@H](F)C7)nc5c3F)N3[C@@H](C)CCOC[C@H]3N4C)c12 [Compound 36],0.189
2,[2H]C1([2H])OCCCN2c3nc(OC[C@@]45CCCN4C[C@H](F)C5)nc4c(F)c(-c5cc(N)cc6ccc(F)c(C#C)c56)nc(c34)N(C)C21 (stereo partly shown) [Compound 76],1.14
3,C#Cc1c(F)ccc2cc(N)cc(-c3nc4c5c(nc(OC[C@@]67CCCN6C[C@H](F)C7)nc5c3F)N3CCCC[C@H](F)[C@H]3N4C)c12 [Compound 40A],0.912
4,C#Cc1c(F)ccc2cc(N)cc(-c3nc4c5c(nc(OC[C@@]67CCCN6C[C@H](F)C7)nc5c3F)N3CCOCCC3N4C)c12 (stereo partly shown) [Compound 114],2.08
5,C#Cc1c(F)ccc2cc(N)cc(-c3nc4c5c(nc(OC[C@@]67CCCN6C[C@H](F)C7)nc5c3F)N3[C@@H](CC)CCOC[C@H]3N4C)c12 [Compound 94],0.576
6,"N#Cc1c(N)sc2c(F)ccc(-c3c(F)c4c5c(nc(OC[C@@]67CCCN6C[C@H](F)C7)nc5c3F)N3CCCOC[C@H]3CO4)c12 (single isomer, unassigned) [Compound 163B]",1.04

# Tested on: not listed separately
# Assay: Mouse pharmacokinetic study
# Type: in vivo
# Settings: Balb/c mouse (female), 3 mg/kg, iv, plasma
# Procedure: The purpose of this study was to evaluate the pharmacokinetic properties of compounds in Balb/c mouse (female) following single dose administration. Six mice were needed for each compound and the six mice were divided into two groups (n=3/group), group A and group B. Mice in group A were treated with a single 3 mg/kg dose of compound (iv). Mice in group B were treated with a single 10 mg/kg dose of compound (po). Foreach mouse in group A, blood samples were collected at the time point of 0.083 h 0.5 h, 1 h, 2 h, 4 h, 8 h and 24 h post-dose. For each mouse in group B, blood samples were collected at the time point of 0.25 h, 0.5 h, 1 h, 2 h, 4 h, 8 h and 24 h post-dose. Blood samples were placed on ice until centrifugation to obtain plasma samples. The plasma samples were stored at −80° C. until analysis. The concentration of compound in plasma samples was determined using a LC-MS/MS method.
row,Structure (SMILES),Cl_obs [mL/min/kg]
1,"N#Cc1c(N)sc2c(F)ccc(-c3c(F)c4c5c(nc(OC[C@@]67CCCN6C[C@H](F)C7)nc5c3F)N3CCCOC[C@H]3CO4)c12 (single isomer, unassigned) [Compound 163B]",1.86

# Same assay, conditions: Balb/c mouse (female), 3 mg/kg, iv, plasma; read-out: AUC0-24 h
row,Structure (SMILES),AUC(0-t) [ng·h/mL]
1,"N#Cc1c(N)sc2c(F)ccc(-c3c(F)c4c5c(nc(OC[C@@]67CCCN6C[C@H](F)C7)nc5c3F)N3CCCOC[C@H]3CO4)c12 (single isomer, unassigned) [Compound 163B]",27300

# Same assay, conditions: Balb/c mouse (female), 10 mg/kg po vs 3 mg/kg iv
row,Structure (SMILES),F [%]
1,"N#Cc1c(N)sc2c(F)ccc(-c3c(F)c4c5c(nc(OC[C@@]67CCCN6C[C@H](F)C7)nc5c3F)N3CCCOC[C@H]3CO4)c12 (single isomer, unassigned) [Compound 163B]",25.3

# Same assay, conditions: Balb/c mouse (female), 10 mg/kg, po, plasma; read-out: AUC0-24 h
row,Structure (SMILES),AUC(0-t) [ng·h/mL]
1,"N#Cc1c(N)sc2c(F)ccc(-c3c(F)c4c5c(nc(OC[C@@]67CCCN6C[C@H](F)C7)nc5c3F)N3CCCOC[C@H]3CO4)c12 (single isomer, unassigned) [Compound 163B]",23000

# Same assay, conditions: Balb/c mouse (female), 10 mg/kg, po, plasma; read-out: Cmax
row,Structure (SMILES),Cmax [ng/mL]
1,"N#Cc1c(N)sc2c(F)ccc(-c3c(F)c4c5c(nc(OC[C@@]67CCCN6C[C@H](F)C7)nc5c3F)N3CCCOC[C@H]3CO4)c12 (single isomer, unassigned) [Compound 163B]",5310

# Tested on: Capan-2 cells (K-Ras G12V)
# Assay: not given
# Settings: not given
row,Structure (SMILES),IC50 [nM]
1,C#Cc1c(F)ccc2cc(N)cc(-c3nc4c5c(nc(OC[C@@]67CCCN6C[C@H](F)C7)nc5c3F)N3[C@@H](C)CCOC[C@H]3N4C)c12 [Compound 36],0.352
2,C#Cc1c(F)ccc2cc(N)cc(-c3nc4c5c(nc(OC[C@@]67CCCN6C[C@H](F)C7)nc5c3F)N3CCCC[C@H](F)[C@H]3N4C)c12 [Compound 40A],0.843
3,"N#Cc1c(N)sc2c(F)ccc(-c3c(F)c4c5c(nc(OC[C@@]67CCCN6C[C@H](F)C7)nc5c3F)N3CCCOC[C@H]3CO4)c12 (single isomer, unassigned) [Compound 163B]",6.2

# Target: GppNp-KRAS G12D (Homo sapiens, UniProt P01116, G12D)
# Assay: biochemical
# Settings: not given
# GppNp-KRAS G12D, sequence (P01116 1-169 isoform P01116-2 G12D): as the sequence (P01116 1-169 isoform P01116-2 G12D) above
row,Structure (SMILES),IC50 [nM]
1,C#Cc1c(F)ccc2cc(N)cc(-c3nc4c5c(nc(OC[C@@]67CCCN6C[C@H](F)C7)nc5c3F)N3[C@@H](C)CCOC[C@H]3N4C)c12 [Compound 36],19.7
2,[2H]C1([2H])OCCCN2c3nc(OC[C@@]45CCCN4C[C@H](F)C5)nc4c(F)c(-c5cc(N)cc6ccc(F)c(C#C)c56)nc(c34)N(C)C21 (stereo partly shown) [Compound 76],96.3
3,C#Cc1c(F)ccc2cc(N)cc(-c3nc4c5c(nc(OC[C@@]67CCCN6C[C@H](F)C7)nc5c3F)N3CCCC[C@H](F)[C@H]3N4C)c12 [Compound 40A],9.42
4,C#Cc1c(F)ccc2cc(N)cc(-c3nc4c5c(nc(OC[C@@]67CCCN6C[C@H](F)C7)nc5c3F)N3CCOCCC3N4C)c12 (stereo partly shown) [Compound 114],295
5,C#Cc1c(F)ccc2cc(N)cc(-c3nc4c5c(nc(OC[C@@]67CCCN6C[C@H](F)C7)nc5c3F)N3[C@@H](CC)CCOC[C@H]3N4C)c12 [Compound 94],224
6,"N#Cc1c(N)sc2c(F)ccc(-c3c(F)c4c5c(nc(OC[C@@]67CCCN6C[C@H](F)C7)nc5c3F)N3CCCOC[C@H]3CO4)c12 (single isomer, unassigned) [Compound 163B]",8.04

# Tested on: SW620 cells (K-Ras G12V)
# Assay: not given
# Settings: not given
row,Structure (SMILES),IC50 [nM]
1,C#Cc1c(F)ccc2cc(N)cc(-c3nc4c5c(nc(OC[C@@]67CCCN6C[C@H](F)C7)nc5c3F)N3[C@@H](C)CCOC[C@H]3N4C)c12 [Compound 36],1.2
2,[2H]C1([2H])OCCCN2c3nc(OC[C@@]45CCCN4C[C@H](F)C5)nc4c(F)c(-c5cc(N)cc6ccc(F)c(C#C)c56)nc(c34)N(C)C21 (stereo partly shown) [Compound 76],7.86
3,C#Cc1c(F)ccc2cc(N)cc(-c3nc4c5c(nc(OC[C@@]67CCCN6C[C@H](F)C7)nc5c3F)N3CCCC[C@H](F)[C@H]3N4C)c12 [Compound 40A],2.71
4,C#Cc1c(F)ccc2cc(N)cc(-c3nc4c5c(nc(OC[C@@]67CCCN6C[C@H](F)C7)nc5c3F)N3CCOCCC3N4C)c12 (stereo partly shown) [Compound 114],45.8
5,C#Cc1c(F)ccc2cc(N)cc(-c3nc4c5c(nc(OC[C@@]67CCCN6C[C@H](F)C7)nc5c3F)N3[C@@H](CC)CCOC[C@H]3N4C)c12 [Compound 94],6.09
6,"N#Cc1c(N)sc2c(F)ccc(-c3c(F)c4c5c(nc(OC[C@@]67CCCN6C[C@H](F)C7)nc5c3F)N3CCCOC[C@H]3CO4)c12 (single isomer, unassigned) [Compound 163B]",2.15
